Source: US9221868B2, “Uridine di- or tri-phosphate derivatives and uses thereof” (BAR-ILAN UNIVERSITY, priority 2010, dated 2015)
“And” between values parts separate entries of the source, which are not always exact repeats. Identical values can stand only once.

Columns and labels:
human NPP3 = target: T1, human NPP3 (Homo sapiens, UniProt O14638); assay: Hydrolysis by NPP3 (HPLC); format: in vitro ADME; conditions: 3 h at 37° C., pH 8.5
T1 construct: Center of Research in Rheumatology and Immunology, Laval University (Québec, Canada), provided and not purchased
T1 sequence (O14638 1-875): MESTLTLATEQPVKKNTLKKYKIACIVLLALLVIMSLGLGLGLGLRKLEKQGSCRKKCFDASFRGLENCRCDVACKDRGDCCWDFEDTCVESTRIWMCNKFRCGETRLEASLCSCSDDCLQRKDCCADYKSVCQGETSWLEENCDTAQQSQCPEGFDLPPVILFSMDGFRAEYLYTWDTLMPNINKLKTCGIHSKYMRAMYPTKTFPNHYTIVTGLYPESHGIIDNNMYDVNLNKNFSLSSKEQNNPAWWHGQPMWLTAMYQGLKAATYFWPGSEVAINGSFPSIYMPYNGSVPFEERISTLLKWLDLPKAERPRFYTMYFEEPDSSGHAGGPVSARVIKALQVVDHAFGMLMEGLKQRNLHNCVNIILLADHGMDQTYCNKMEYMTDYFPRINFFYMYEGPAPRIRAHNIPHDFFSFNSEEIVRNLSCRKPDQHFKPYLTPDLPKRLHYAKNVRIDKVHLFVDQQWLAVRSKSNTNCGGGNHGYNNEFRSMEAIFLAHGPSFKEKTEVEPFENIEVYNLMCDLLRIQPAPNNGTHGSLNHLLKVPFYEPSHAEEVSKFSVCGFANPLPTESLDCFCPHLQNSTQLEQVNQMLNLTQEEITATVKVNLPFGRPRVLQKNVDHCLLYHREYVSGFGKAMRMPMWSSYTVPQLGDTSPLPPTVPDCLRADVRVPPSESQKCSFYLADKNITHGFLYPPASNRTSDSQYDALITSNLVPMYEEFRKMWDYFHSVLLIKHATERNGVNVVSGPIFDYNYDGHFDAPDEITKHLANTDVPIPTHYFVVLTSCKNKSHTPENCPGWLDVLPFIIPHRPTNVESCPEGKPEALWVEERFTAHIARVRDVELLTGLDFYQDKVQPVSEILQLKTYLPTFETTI
Description: (§1) All stability experiments were performed in duplicates.
(§2) In this study, the hydrolysis rate of analogue 13A as compared to UDP and analogue 12, by human NPP1 and NPP3 after incubation at 37° C. in appropriate buffer, was determined.
(§3) 56.15 μg or 57.78 μg of human NPP1 or NPP3 extract, respectively, was added to 0.575 ml the incubation mixture (1 mM […], 200 mM NaCl, 10 mM KCl and 100 mM Tris, pH 8.5) and preincubated at 37° C. for 3 min. Reaction was initiated by the addition of 0.015 ml of 4 mM of UDP, 12 or 13A. The reaction was stopped after incubation of 2 h or 3 h with NPP1 or NPP3, respectively, by transferring a 0.1 ml aliquot from the reaction mixture to 0.350 ml ice-cold 1 M perchloric acid. These samples were centrifuged for 1 min at 10000×g. Supernatants were neutralized with 1 M KOH in 4° C. and centrifuged 1 min at 10000×g. The reaction mixture was filtered and freeze-dried.

human NPP1 = target: T2, human NPP1 (Homo sapiens, UniProt P22413); assay: Hydrolysis by NPP1 (HPLC); format: in vitro ADME; conditions: 2 h at 37° C., pH 8.5
T2 construct: Center of Research in Rheumatology and Immunology, Laval University (Québec, Canada), provided and not purchased
T2 sequence (P22413 1-925): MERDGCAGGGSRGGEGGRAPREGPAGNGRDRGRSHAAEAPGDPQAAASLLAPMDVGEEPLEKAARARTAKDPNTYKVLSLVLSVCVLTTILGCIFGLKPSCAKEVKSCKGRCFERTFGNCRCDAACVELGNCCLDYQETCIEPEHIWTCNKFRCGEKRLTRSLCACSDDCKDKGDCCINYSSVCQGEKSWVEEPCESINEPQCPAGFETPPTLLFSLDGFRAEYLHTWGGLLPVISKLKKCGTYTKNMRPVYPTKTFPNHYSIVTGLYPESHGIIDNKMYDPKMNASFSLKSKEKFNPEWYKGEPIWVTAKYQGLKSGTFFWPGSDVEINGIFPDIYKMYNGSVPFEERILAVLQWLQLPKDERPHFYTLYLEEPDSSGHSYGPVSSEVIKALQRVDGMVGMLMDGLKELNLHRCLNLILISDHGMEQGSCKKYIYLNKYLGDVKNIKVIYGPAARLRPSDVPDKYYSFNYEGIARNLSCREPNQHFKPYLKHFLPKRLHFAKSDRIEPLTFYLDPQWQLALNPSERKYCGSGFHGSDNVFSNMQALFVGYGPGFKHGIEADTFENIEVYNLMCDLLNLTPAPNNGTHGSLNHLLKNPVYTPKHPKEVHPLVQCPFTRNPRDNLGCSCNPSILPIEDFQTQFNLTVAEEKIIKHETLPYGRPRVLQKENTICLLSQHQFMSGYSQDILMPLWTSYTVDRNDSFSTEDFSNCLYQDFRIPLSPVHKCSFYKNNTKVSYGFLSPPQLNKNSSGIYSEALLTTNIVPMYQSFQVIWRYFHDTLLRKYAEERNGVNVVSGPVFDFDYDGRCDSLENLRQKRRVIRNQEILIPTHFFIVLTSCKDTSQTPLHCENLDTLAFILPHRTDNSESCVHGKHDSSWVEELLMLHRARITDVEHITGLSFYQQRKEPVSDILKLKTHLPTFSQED
Description: as §1, §2, §3

[1] = Stability in human blood serum (HPLC); conditions: for half-life at 0.14 mg/ml: human, human blood serum diluted in RPMI-1640
Description: Human blood serum was obtained from a blood bank (Tel-Hashomer Hospital, Israel). All stability experiments were performed in duplicates.
The assay mixture containing 0.1 mg each analogue in deionized water (4.5 μl), human blood serum (180 μl) and RPMI-1640 medium (540 μl) (Eliahu et al., 2010a) was incubated at 37° C. for 0-24 h. At 0.5-12 h intervals, each sample was heated to 80° C. for 30 min, treated with CM Sephadex (1-2 mg), shaken for 2 h and centrifuged for 6 min (12000 rpm), and the aqueous layer was collected and extracted with chloroform (2×500 μl). The aqueous layer was freeze-dried and then dissolved in deionized water (100 μl). Samples were loaded onto an activated Starta X-AW weak anion exchange cartridge, washed with H2O (1 ml) and eluted with MeOH:H2O (1:1, 1 ml) followed by NH4OH:MeOH:H2O (2:25:73, 1 ml), and then freeze-dried. The resulting residue was analyzed by HPLC on a Gemini analytical column (5μ C-18 557 110 A; 150 mm×4.60 mm), using gradient elution with solvent system I (for UDP and 12—A:B 96:4 over 10 min) or II (for uridine-5′-O-(α-borano diphosphate) and 13A—A:B 97.5:2.5 over 10 min) at a flow rate of 1 ml/min. […] The percentage of compound degradation was calculated vs. control, to take into consideration the degradation of the compounds due to the work up following the enzymatic reaction. Therefore, each of the samples was compared to a control which was put through the same workup, but to which no serum was added. The percentage of degradation was calculated from the area under the curve of the nucleoside monophosphate peak, after subtraction of the control, which is the amount of the nucleoside monophosphate peak formed due to chemical hydrolysis.

physchem = conditions: for half-life / Half-life (t1/2) of hydrolysis at pH 1.4: buffer, pH 1.4; for Rate constant of phosphate ester hydrolysis at pH 1.4: pH 1.4, 37° C., pseudo-first-order
Description: as §1
The stability of UDP, 11, 12 and 13A in a buffer solution (pH 1.4) was evaluated by ^31P NMR at 37° C. for monitoring possible dephosphorylation products (the signal of the phosphate hydrolysis products is at ˜0 ppm, while that of the borano phosphate analogues is at ˜85 ppm). NMR spectra were recorded on a Bruker DMX-600 spectrometer with a ^31P NMR probe (isotope frequency of 240 MHz) using 85% H3PO4 as an external reference.
Sodium salts of UDP, 11, 12 and 13A were dissolved in 0.45 ml of KCl/HCl buffer (pH 1.4) and D2O (0.05 ml) was added. The final pH was adjusted to pH 1.4. pH measurements were performed with an Metrohm pH electrode and a Metrohm 827 meter. Spectra were recorded at 15 min, 1 h, or 24 h time intervals at 37° C. For experiments that were several days long, the solution was kept in an oil bath at 37° C. and spectra were recorded at ca. 24 h time intervals. The phosphate ester hydrolysis rate was determined by measuring the change of the integration of one of the phosphates signals of the starting material with time.

[BH3-][P+](O)(OCC1OC(n2cc(OC)c(=O)[nH]c2=O)C(O)C1O)OP(=O)(O)O (single isomer, unassigned) [Analogue 13A, 5-methoxyuridine-5′-O-(α-boranodiphosphate)]
Hydrolysis percentage by NPP3 (human NPP3): 28%
Hydrolysis percentage by NPP1 (human NPP1): 15%
half-life at 0.14 mg/ml [1]: 17 h
half-life (physchem): 16.9 h

COc1cn([C@@H]2O[C@H](COP(=O)(O)OP(=O)(O)O)[C@@H](O)[C@H]2O)c(=O)[nH]c1=O [Analogue 12, 5-methoxyuridine diphosphate]
Hydrolysis percentage by NPP3 (human NPP3): 36%
Hydrolysis percentage by NPP1 (human NPP1): 49% and 51%
half-life at 0.14 mg/ml [1]: 11.9 h
Half-life (t1/2) of hydrolysis at pH 1.4 (physchem): 13 days
half-life (physchem): ~312 h
Rate constant of phosphate ester hydrolysis at pH 1.4 (physchem): 6.25×10^−7 s^−1

O=c1ccn([C@@H]2O[C@H](COP(=O)(O)OP(=O)(O)O)[C@@H](O)[C@H]2O)c(=O)[nH]1 [UDP, reference compound]
Hydrolysis percentage by NPP3 (human NPP3): 45%
Hydrolysis percentage by NPP1 (human NPP1): 50%
Half-life in human blood serum ([1]; human blood serum and RPMI-1640, 37° C.): 2.4 h
Half-life (t1/2) of hydrolysis at pH 1.4 (physchem): ~12 days
Rate constant of phosphate ester hydrolysis at pH 1.4 (physchem): 6.66×10^−7 s^−1
